Laboratory results reported in ChEMBL document CHEMBL1157381, “Alkaloids from the Australian rainforest tree Ochrosia moorei” (J Nat Prod, 2008).
Calls of active or inactive are those of the source. The rule behind the calls is not given here.

Legend:
Assay type in all cases: cell-based
[1] = target: T1, Glucocorticoid receptor (Homo sapiens) (UniProt P04150); experiment: Inhibition of glucocorticoid receptor-glucocorticoid complex transfected in rat R1 cells assessed as down-regulation of TPA-responsive element proinflammatory gene expression at 10 uM after 24 hrs by beta-galactosidase assay
T1 sequence (whole entry): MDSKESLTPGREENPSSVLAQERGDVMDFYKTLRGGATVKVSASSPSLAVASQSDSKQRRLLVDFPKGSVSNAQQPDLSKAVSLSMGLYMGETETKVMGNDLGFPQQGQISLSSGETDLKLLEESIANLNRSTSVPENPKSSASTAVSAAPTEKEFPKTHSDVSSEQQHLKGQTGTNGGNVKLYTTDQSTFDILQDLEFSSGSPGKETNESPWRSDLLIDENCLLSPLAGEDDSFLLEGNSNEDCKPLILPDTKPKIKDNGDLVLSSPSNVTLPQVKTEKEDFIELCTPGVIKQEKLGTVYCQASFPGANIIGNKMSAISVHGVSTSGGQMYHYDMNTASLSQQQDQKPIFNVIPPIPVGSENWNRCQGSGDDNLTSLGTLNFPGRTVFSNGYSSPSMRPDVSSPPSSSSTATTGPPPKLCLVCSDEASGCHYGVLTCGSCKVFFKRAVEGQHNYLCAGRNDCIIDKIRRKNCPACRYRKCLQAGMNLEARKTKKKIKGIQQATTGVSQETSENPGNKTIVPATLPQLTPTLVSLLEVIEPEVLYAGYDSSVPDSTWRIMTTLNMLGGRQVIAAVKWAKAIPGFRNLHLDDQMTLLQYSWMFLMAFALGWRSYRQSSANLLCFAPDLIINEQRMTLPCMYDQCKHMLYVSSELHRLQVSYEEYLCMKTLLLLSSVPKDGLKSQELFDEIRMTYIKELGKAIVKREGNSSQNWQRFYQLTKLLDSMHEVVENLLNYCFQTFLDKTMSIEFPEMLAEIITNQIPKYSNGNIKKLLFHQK

[2] = target: T1, Glucocorticoid receptor (Homo sapiens); experiment: Inhibition of glucocorticoid receptor-glucocorticoid complex transfected in rat R1 cells assessed as down-regulation of TPA-responsive element proinflammatory gene expression at 100 uM after 24 hrs by beta-galactosidase assay; design: scale not given: the % may be the effect or the level left
[3] = target: T2, Glucocorticoid receptor (Homo sapiens, UniProt P04150); experiment: Inhibition of glucocorticoid receptor-glucocorticoid complex transfected in rat R1 cells assessed as down-regulation of TPA-responsive element proinflammatory gene expression after 24 hrs by beta-galactosidase assay
T2 sequence (P04150 whole entry): T1 sequence (whole entry)

[4] = test system: R1; experiment: Cytotoxicity against rat R1 cells at 100 uM after 24 hrs by neutral red assay; settings: r1, 24 h

Row | Compound | Activity [1] | Activity [2] [%] | IC50 [3] [µM] | Activity [4]
1 | CN1c2ccccc2[C@]23CCN4C=C(C(=O)CO)[C@H](C[C@H]42)C[C@H]13 | inactive |  |  | 
2 | C=C1c2[nH]c3ccccc3c2CN2CC[C@H]1/C(=C\C)C2 |  | 54 |  | 
3 | COc1ccc2[nH]c3c(C)c4ccncc4c(C)c3c2c1 |  |  | 90 | Non-toxic
4 | C=C[C@H]1[C@H](O[C@H]2O[C@H](CO)[C@@H](O)[C@H](O)[C@H]2O)OC=C(C(=O)OC)[C@H]1Cc1nc(C(=O)O)cc2c1[nH]c1ccccc12 |  | 30 |  | 
5 | CC(=O)C1=CN2CC[C@]34c5ccccc5N(C)[C@H]3C[C@H]1C[C@H]24 | inactive |  |  | 
6 | Cc1c2ccncc2c(C)c2c1[nH]c1ccccc12 [ELLIPTECINE] |  |  | 90 | Non-toxic
